According to PubChem BioAssay (NCI):
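Here, GI50 denotes the concentration required for 50% inhibition of growth. The concentration for full growth arrest is given as TGI.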

Tests used:
Test in all cases: growth of human tumour cells (NCI), 384-well format
HOP-92 NSCLC = tested on: HOP-92 NSCLC
T-47D breast = tested on: T-47D breast
HCC-2998 colon = tested on: HCC-2998 colon
HCT-116 colon = tested on: HCT-116 colon
SF-268 CNS = tested on: SF-268 CNS
OVCAR-3 ovarian = tested on: OVCAR-3 ovarian
HOP-62 NSCLC = tested on: HOP-62 NSCLC
PC-3 prostate = tested on: PC-3 prostate
SK-MEL-2 melanoma = tested on: SK-MEL-2 melanoma
SK-MEL-28 melanoma = tested on: SK-MEL-28 melanoma
NCI-H460 NSCLC = tested on: NCI-H460 NSCLC
SW-620 colon = tested on: SW-620 colon
SNB-19 CNS = tested on: SNB-19 CNS

Work on `CCN(CC)CCNC(=O)c1c(C)[nH]c(/C=C2\C(=O)Nc3ccc(F)cc32)c1C` yielded a GI50 (HOP-92 NSCLC) of 1.62 µM, a TGI (HOP-92 NSCLC) of 4.86 µM and a GI50 (T-47D breast) of 4.24 µM. The TGI (T-47D breast) was 8.33 µM, the GI50 (HCC-2998 colon) was 1.71 µM and the TGI (HCC-2998 colon) was 3.32 µM. It also gave a GI50 (HCT-116 colon) of 1.28 µM, a TGI (HCT-116 colon) of 2.62 µM and a GI50 (SF-268 CNS) of 4.23 µM. It also gave a TGI (SF-268 CNS) of 13.1 µM, a GI50 (OVCAR-3 ovarian) of 1.78 µM and a TGI (OVCAR-3 ovarian) of 3.31 µM. It also gave a GI50 (HOP-62 NSCLC) of 2.78 µM, a TGI (HOP-62 NSCLC) of 8.28 µM and a GI50 (PC-3 prostate) of 2.27 µM. It also gave a TGI (PC-3 prostate) of 7.54 µM, a GI50 (SK-MEL-2 melanoma) of 1.29 µM and a TGI (SK-MEL-2 melanoma) of 2.57 µM. The GI50 (SK-MEL-28 melanoma) was 1.66 µM, the TGI (SK-MEL-28 melanoma) was 3.13 µM and the GI50 (NCI-H460 NSCLC) was 1.79 µM. The TGI (NCI-H460 NSCLC) was 5.73 µM, the GI50 (SW-620 colon) was 1.7 µM and the TGI (SW-620 colon) was 4.29 µM. For the same compound, the GI50 (SNB-19 CNS) was 6.08 µM and the TGI (SNB-19 CNS) was 13.7 µM.
